In patent publication US11465987B2, “Compounds for treatment of cancer” (ONCTERNAL THERAPEUTICS, INC., priority 2012, dated 2022):
Counter-ions that a name gives are not always drawn. Like-named read-outs stand apart in the source and are kept apart here.

Key:
[1] = tested on: DU 145 human prostate cancer cell line; test: Cytotoxicity (SRB) assay, DU 145; type: cell-based
Excerpt: (§1) Cells were stained with SRB solution.

[2] = tested on: PPC-1 human prostate cancer cell line; test: Cytotoxicity (SRB) assay, PPC-1; type: cell-based
Excerpt: as §1

[3] = tested on: melanoma and prostate cancer cell lines; test: Antiproliferative activity summarised over the cell line panel (range or average); type: cell-based
[4] = tested on: PC-3 human prostate cancer cell line; test: cells
Excerpt: as §1

[5] = tested on: LNCaP human prostate cancer cell line; test: Cytotoxicity (SRB) assay, LNCaP; type: cell-based
Excerpt: as §1

[6] = tested on: A375 human melanoma cell line; test: Cytotoxicity (SRB) assay, A375; type: cell-based
[7] = tested on: B16-F1 mouse melanoma cell line; test: Cytotoxicity (SRB) assay, B16-F1; type: cell-based
[8] = tested on: WM-164 human melanoma cell line; test: Cytotoxicity (SRB) assay, WM-164; type: cell-based
[9] = Homo sapiens, DU-145, SRB assay, prostate cancer DU 145, read-out: IC50 DU 145
[10] = Homo sapiens, PPC-1, SRB assay, prostate cancer PPC-1, read-out: IC50 PPC-1
[11] = Homo sapiens, read-out: IC50 PC-3, SRB assay, prostate cancer PC-3
[12] = Homo sapiens, LNCaP, SRB assay, prostate cancer LNCaP, read-out: IC50 LNCaP
[13] = Homo sapiens, WM164, Table 12, read-out: IC50 ± SEM, WM164 (converted)
[14] = Mus musculus, B16-F1, Table 12, read-out: IC50 ± SEM, B16-F1 (converted)
[15] = Homo sapiens, DU-145, read-out: IC50 ± SEM, DU 145
[16] = Homo sapiens, PPC-1, read-out: IC50 ± SEM, PPC-1
[17] = Homo sapiens, read-out: IC50 ± SEM, PC-3
[18] = Homo sapiens, LNCaP, read-out: IC50 ± SEM, LNCaP
[19] = Homo sapiens, DU-145, Table 13A, read-out: inhibitory effects, DU145
[20] = Homo sapiens, PPC-1, Table 13A, read-out: inhibitory effects, PPC1
[21] = Homo sapiens, LNCaP, Table 13A, read-out: inhibitory effects, LNCaP
[22] = Homo sapiens, DU-145, Table 6A, read-out: IC50 ± SEM, DU 145
[23] = Homo sapiens, PPC-1, Table 6A, read-out: IC50 ± SEM, PPC-1 (converted)
[24] = Homo sapiens, read-out: IC50 ± SEM, PC-3, Table 6A
[25] = Homo sapiens, LNCaP, Table 6A, read-out: IC50 ± SEM, LNCaP (converted)

Structure (SMILES): COc1cc(C(=O)c2cccc(-c3ccccc3)n2)cc(OC)c1OC [1c, (6-Phenylpyridin-2-yl)(3,4,5-trimethoxyphenyl)methanone]
- IC50 [1, 9]: 33 ± 3 nM
- IC50 [2, 10]: 25 ± 1 nM
- IC50 ([3]; range over prostate cancer cell lines, read-out: IC50 range against prostate cancer cells): 12 to 35 nM
- IC50 [4, 11]: 32 ± 2 nM
- IC50 [5, 12]: 27 ± 2 nM
- IC50 ([6]; Homo sapiens, A-375, SRB assay, human melanoma A375, read-out: IC50 A375): 30 ± 14 nM
- IC50 ([7]; Mus musculus, B16-F1, SRB assay, mouse melanoma B16-F1, read-out: IC50 B16-F1): 39 ± 12 nM

Structure (SMILES): COc1cc(C(=O)C2N(C)C=C(c3ccccc3)N2C)cc(OC)c1OC (centres unmarked) [compound 105, (1,3-Dimethyl-4-phenyl-2,3-dihydro-1H-imidazol-2-yl)(3,4,5-trimethoxyphenyl)methanone]
- IC50 [2, 10]: 5290 nM
- IC50 [4, 11]: 3490 nM
- IC50 [5, 12]: 4240 nM

Structure (SMILES): O=C(c1cc(O)c(O)c(O)c1)c1c[nH]c(-c2ccc(Cl)cc2)n1 [13fa, (2-(4-chlorophenyl)-1H-imidazol-4-yl)(3,4,5-trihydroxyphenyl)methanone]
- IC50 ([4]; Homo sapiens, read-out: IC50 ± SEM, PC-3, Table 12): 10000 nM
- IC50 ([6]; Homo sapiens, A-375, Table 12, read-out: IC50 ± SEM, A375 (converted)): 3900 nM
- IC50 [8, 13]: 2100 nM
- IC50 [7, 14]: 1810 nM

Structure (SMILES): COc1cc(C(=O)c2cccc(-c3cc(OC)c(OC)c(OC)c3)c2)cc(OC)c1OC [compound 35]
- IC50 [1, 15]: 21900 nM
- IC50 [2, 16]: 15000 nM
- IC50 [4, 17]: 40100 nM
- IC50 [5, 18]: 1500 nM

Structure (SMILES): O=C(c1cc(O)c(O)c(O)c1)c1c[nH]c(-c2ccc(O)c(O)c2)n1 [13ha]
- IC50 ([6]; Table 12, read-out: IC50 ± SEM, A375 (converted)): > 10000 nM
- IC50 ([8]; Table 12, read-out: IC50 ± SEM, WM164 (converted)): > 10000 nM
- IC50 ([7]; Table 12, read-out: IC50 ± SEM, B16-F1 (converted)): > 10000 nM

Structure (SMILES): Cc1ccc(-c2nc(C(=O)c3ccc(F)cc3)c[nH]2)cc1 [12db, (4-fluorophenyl)(2-(p-tolyl)-1H-imidazol-4-yl)methanone]
- IC50 ([2]; Homo sapiens, PPC-1, Table 12, read-out: IC50 ± SEM, PPC-1 (converted)): 54 nM
- IC50 ([3]; read-out: IC50 (range over tested cell lines)): 7.9 to 110 nM
- IC50 [8, 13]: 156 nM
- IC50 [7, 14]: 222 nM

Structure (SMILES): COc1cc(C(=O)c2csc(Nc3ccc(C)cc3)n2)cc(OC)c1OC [5Hb, (2-(p-tolylamino)thiazol-4-yl)(3,4,5-trimethoxyphenyl)methanone hydrochloride salt]
- IC50 [1, 9]: 35 ± 1 nM
- IC50 [2, 10]: 36 ± 1 nM
- IC50 [4, 11]: 38 ± 2 nM
- IC50 [5, 12]: 35 ± 1 nM

Structure (SMILES): COc1cc(/C=C\c2csc(-c3ccccc3)n2)cc(OC)c1OC [3a, (Z)-2-Phenyl-4-(3,4,5-trimethoxystyryl)thiazole]
- antiproliferative activity in words ([3]; Tables 1-3): lost activity
- IC50 ([4]; Homo sapiens, read-out: IC50 PC-3): > 10000 nM
- IC50 ([8]; Homo sapiens, WM164, read-out: IC50 WM164): 10600 ± 5800 nM

Structure (SMILES): COc1cc(C(=O)c2nc(-c3ccccc3)cn2-c2ccccn2)cc(OC)c1OC [70ad]
- IC50 [1, 19]: 36.3 nM
- IC50 [2, 20]: 7.8 nM
- IC50 [5, 21]: 19.5 nM

Structure (SMILES): O=C(c1csc(-c2ccccc2)n1)c1c(F)c(F)c(F)c(F)c1F [compound 17]
- IC50 [1, 22]: 2600 nM
- IC50 [2, 23]: 1300 nM
- IC50 [4, 24]: 1900 nM
- IC50 [5, 25]: 2100 nM

Structure (SMILES): Cc1ccc(-c2nc(C(=O)c3ccc(F)cc3)cn2C(=O)c2ccc(F)cc2)cc1 [compound 29]
- IC50 [1, 22]: > 10000 nM
- IC50 [2, 23]: > 10000 nM
- IC50 [4, 24]: > 10000 nM
- IC50 [5, 25]: 1790 nM

Structure (SMILES): COc1cc(C(=O)c2nc(-c3ccccc3)cn2C2CCCC2)cc(OC)c1OC [70p, (1-cyclopentyl-4-phenyl-1H-imidazol-2-yl)(3,4,5-trimethoxyphenyl)methanone]
- IC50 [1, 19]: 167 nM
- IC50 [2, 20]: 63 nM
- IC50 ([4]; Homo sapiens, read-out: inhibitory effects, PC3, Table 13A): 56 nM
- IC50 [5, 21]: 51 nM

Structure (SMILES): COc1cc(C(=O)c2csc(-c3ccc(N)cc3)n2)cc(OC)c1OC [compound 26]
- IC50 [1, 15]: 16 nM
- IC50 [2, 16]: 15 nM
- IC50 [4, 17]: 16 nM
- IC50 [5, 18]: 23 nM

Structure (SMILES): COc1cc(C(=O)c2nc(-c3ccc(O)cc3)c[nH]2)cc(OC)c1OC [70i, (4-(4-Hydroxyphenyl)-1H-imidazol-2-yl)(3,4,5-trimethoxyphenyl)methanone and (5-(4-hydroxyphenyl)-1H-imidazol-2-yl)(3,4,5-trimethoxyphenyl)methanone)]
- IC50 ([1]; Table 13A, read-out: inhibitory effects, DU145): 518 nM
- IC50 ([2]; Table 13A, read-out: inhibitory effects, PPC1): 122 nM
- IC50 ([4]; read-out: inhibitory effects, PC3, Table 13A): 155 nM
- IC50 ([5]; Table 13A, read-out: inhibitory effects, LNCaP): 219 nM

Structure (SMILES): CCCn1cc(-c2ccccc2)nc1C(=O)c1cc(OC)c(OC)c(OC)c1 [70ab]
- IC50 ([1]; Homo sapiens, DU-145, read-out: inhibitory effects, DU145): 71.6 nM
- IC50 ([2]; Homo sapiens, PPC-1, read-out: inhibitory effects, PPC1): 9.8 nM
- IC50 ([4]; Homo sapiens, read-out: inhibitory effects, PC3): 25.6 nM
- IC50 ([5]; Homo sapiens, LNCaP, read-out: inhibitory effects, LNCaP): 49.4 nM
